Experimental data as given in patent US20060293275A1, “Hgf production accelerator containing heparin-like oligosaccharide” (priority 2004, published 2006).

Tests used:
lipoprotein lipase (LPL) = assay: LPL releasing activity (LPL amount in plasma by ELISA after tail vein administration); assay type: in vivo, Wister rat; conditions: rat, after 10 minutes
From the text: LPL releasing activity of the sugar chain compound such as oligosaccharide used in the agent of the present invention for promoting HGF production or a salt thereof can be assessed by administering the sugar chain compound or a salt thereof to a mouse or a rat, taking the plasma after a certain time, and measuring the amount of LPL in the plasma. The amount of LPL in the plasma can be determined by measuring LPL activity, or measuring the mass of LPL protein by ELISA.
For measuring LPL releasing activity, heparin fragments were administered to Wister rat (3-week old male) via the tail vein at 0.3 μg per 1 g of body weight and, after 10 minutes, blood was taken from axillary fossa venous plexus, and a LPL amount in the resulting plasma was measured by ELISA (Daiichi Pure Chemicals Co., Ltd). In high-molecular weight heparin, about 250 ng/mL LPL was released, but in low-molecular weight heparin (Fragmin, Kissei Pharmaceutical Co., Ltd.), released LPL amount was reduced to about 30% of the amount in the case of high-molecular weight heparin. […] In particular, in oligosaccharides not larger than octasaccharide, reduction in released LPL amount was remarkable.

[1] = test system: MRC-9 cells, human fetal lung fibroblasts; assay: Activity to promote HGF production in MRC-9 cells (HGF in culture medium by ELISA); assay type: cell-based; conditions: 0 to 50 μg/ml
Description: An activity to promote HGF production of the agent of the present invention can be measured by comparing the HGF concentration in the culture medium of HGF-producing cells when the sugar chain compounds such as oligosaccharides or a salt thereof are added with that when they are not added, wherein the concentration of HGF can be measured by ELISA. As an HGF-producing cell, MRC-5 and MRC-9 cells, human fetal lung fibroblasts, can be used.
Activities to promote HGF production of the heparin fragments (oligosaccharides) obtained in Example 1 were measured by using MRC-9 cells, human fetal lung fibroblasts. The cells were cultured with heparin fragments(oligosaccharides) and amounts of HGF produced by the cell were analyzed. First, MRC-9 cells were seeded onto a 48 well plate at a density of 5×10^4 cells/cm^2, and cultured in a DMEM medium containing 10% FCS for one day. After removing the medium, the cells were washed twice with 0.5 mL of PBS, and the medium was exchanged with a DMEM medium containing 1% FCS. Thereafter, the culture was continued. At this time, the heparin fragments obtained in Example 1 were added to the medium at a final concentration of 1 μg/ml. After 24 hours, the culture supernatant was recovered, and an amount of HGF secreted into the culture medium was measured by the ELISA method. […]

[2] = test system: fresh plasma taken from Wister rat; assay: Anti-blood coagulation activity by activated partial thromboplastin time (APTT); assay type: biochemical; conditions: 9 μg/mL or 3 μg/mL
From the text: Anti-blood coagulation activity of the sugar chain compound such as oligosaccharide or a salt thereof used in the agent of the present invention for promoting HGF production can be assessed by measuring an activated partial thromboplastin time (APTT) or anti-factor Xa activity according to the known methods that have been used for measuring anti-blood coagulation activity of low-molecular-weight heparin.
Regarding the heparin fragments (oligosaccharides) obtained in Example 1, anti-blood coagulation activity and LPL releasing activity were measured. Anti-blood coagulation activity was assessed by comparing an activated partial thromboplastin time (APTT). APTT was measured using fresh plasma taken from Wister rat (male) and Data φ·APTT kit (Sysmex) which utilizes activation by ellagic acid. The heparin fragments were added to rat plasma at a concentration of 9 μg/mL or 3 μg/mL, and APTT values (second) were compared.

LPL releasing activity (in words) (lipoprotein lipase (LPL)) | SMILES | activity to promote HGF production of disaccharide compounds (in words) [1] | anti-blood coagulation activity / extension of APTT (in words) [2]
not detected | O=C(O)C1=C[C@H](O)[C@@H](O)[C@H](O[C@H]2[C@H](O)[C@@H](NS(=O)(=O)O)C(O)O[C@@H]2CO)O1 (some centres unmarked) [2-Sac-NS, ΔUA-GlcNS] | higher activity to promote HGF production than 2-Sac-2S | not detected
not detected | CC(=O)N[C@H]1C(O)O[C@H](COS(=O)(=O)O)[C@@H](O[C@@H]2OC(C(=O)O)=C[C@H](O)[C@H]2O)[C@@H]1O (some centres unmarked) [2-Sac-6S, ΔUA-GlcNAc-6S] | higher activity to promote HGF production than 2-Sac-2S | not detected
not detected | NC1C(O)OC(CO)C(OC2OC(C(=O)O)=CC(O)C2OS(=O)(=O)O)C1O (stereo not drawn) [2-Sac-2S, ΔUA-2S-GlcN] |  | not detected
